Experimental data as given in patent US7432242B2, “Inhibitors of RGS proteins” (The Regents of the University of Michigan, priority 2002, dated 2008).
pIC50: −log10 of the molar value. Where a SMILES comes first, the peptide text is derived from it. Bridges are numbered along the chain shown (N, C = ends). Where no end group is shown, it is not given here.

Assays:
RGS4 = RGS4 (Homo sapiens, UniProt P49798); experiment: Steady-state GTPase assay, RGS4-stimulated, CHO cell membranes expressing α2a AR; type: biochemical; design: key to Activity (inhibitory activity, relative scale): −: —(no inhibition); relative scale from—(no inhibition) to +++; conditions: for pIC50: steady-state membrane GTPase assay; for Activity (inhibitory activity, relative scale): inhibition of RGS4-mediated GTPase acceleration
Method: (§1) In some embodiments, the membrane assay comprises a GTPase assay (See e.g, Berman et al., J. Biol. Chem., 271:27209 [1996] and Berman et al., Cell 86:445 [1996]). In such embodiments, α2A adrenergic receptor expressing membranes are pre-incubated with γ-^32P GTP and RGS proteins. In some embodiments, membranes contain both α2A adrenergic receptor and Gαo subunits, allowing measurement of both Gi and Go-coupled RGS proteins. In some embodiments, a steady-state GTPase assay is utilized to assay RGS inhibitors (See e.g., Wise and Milligan, J. Biol. Chem., 272:24673 [1997]).
This example describes a novel method of assaying for inhibitors of RGS-mediated GTPase Acceleration. A modified version of the [^35S] GTPγS binding method described in Wieland et al., 1994 (Wieland et al., Methods Enzymol. 237:3 [1994]) was utilized, with the exception that an RGS protein was included to enhance the receptor stimulation of GTPγS binding. RGS-mediated enhancement of receptor-stimulated [^35S]GTPγS binding was determined in CHO cell membranes expressing high densities (10-20 pmol/mg) of receptor. The method is not limited to the alpha 2a adrenergic receptor or the CHO membrane described herein. The membrane can be from other cell types and/or expressing other G protein coupled receptors (e.g., including, but not limited to, other Gi coupled receptors).
The assay buffer was 50 mM Tris, 5 mM MgCl2, 1 mM EDTA, 100 mM NaCl, 1 mM DTT, pH 7.6. The reaction mixture also contained the following components. Some preferred embodiments include at least one of the components marked with an *. • 1. High nanomolar or low micromolar concentrations (typically 1 μM) of GDP.* • 2. 4 μg of Chinese hamster ovary (CHO) membranes expressing the alpha 2a adrenergic receptor (α2AAR) at a receptor density of ˜10-20 pmol/mg. α2AAR-CHO membranes were prepared as previously described (Wade et al., Mol. Pharmacol. 56: 1005 [1999]). Membranes were re-suspended in Tris/MgCl2/EGTA (TME) buffer (50 mM Tris, 10 mM MgCl2, 1 mM EGTA, pH 7.6) and were aliquoted before being frozen in liquid N2 and stored at −80° C. until use. The receptor density in the α2aAR-CHO membranes was determined by [^3H] yohimbine binding and Bradford assay (Bradford, Anal. Biochem. 72: 248 [1976]). • 3. 0.2 nM-50 nM [^35S]GTPγS. A low concentration with respect to the higher concentrations of G protein and GTP utilized is necessary*. • 4. Saturating concentration of agonist for the receptor type utilized. UK 14,304 (10 μM). • 5. RGS proteins at μM or high nM ranges. • 6. GTP at high nM or low μM ranges. This is the most critical component of this method, since the massive GTP hydrolysis accelerated by RGS promotes formation of the empty DRG state which is detected by the low concentration of [^35S]GTPγS.*
Activity was measured by use of CHO cell membranes expressing the α2a AR at high levels (10-20 pmol/mg) described in Example 1 above.
Subsequently, a series of constrained peptides (Table 3) was prepared and the inhibitory activity tested. The inhibitory activity is shown in Table 3 as a relative scale from—(no inhibition) to +++.

RGS8 = molecular target: T1, RGS8 (Homo sapiens, UniProt P57771); experiment: Steady-state membrane GTPase assay, RGS8-stimulated; type: biochemical
T1 sequence (P57771 1-180): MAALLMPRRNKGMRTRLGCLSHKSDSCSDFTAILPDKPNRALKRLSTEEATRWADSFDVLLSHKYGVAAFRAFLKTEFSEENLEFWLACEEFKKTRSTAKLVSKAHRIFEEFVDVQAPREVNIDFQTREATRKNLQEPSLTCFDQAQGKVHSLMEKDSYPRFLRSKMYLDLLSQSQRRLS
Method: as §1
In addition to the inhibitory activity against RGS4 mediated GTPase acceleration, three of the peptides found to be most inhibitory against RGS4 were tested for their ability to inhibit RGS8 stimulated GTPase activity.

RGS4, sequence (P49798 whole entry, species assumed): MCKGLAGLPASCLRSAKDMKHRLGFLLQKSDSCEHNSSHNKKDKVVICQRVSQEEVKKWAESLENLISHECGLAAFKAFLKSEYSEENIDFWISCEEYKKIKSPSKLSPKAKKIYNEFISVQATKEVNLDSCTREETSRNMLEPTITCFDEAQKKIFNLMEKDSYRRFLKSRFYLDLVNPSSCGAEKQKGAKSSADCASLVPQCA

Compound	pIC50 (RGS4)	Activity (inhibitory activity, relative scale) (RGS4)	other results
CC[C@H](C)[C@@H]1NC(=O)CNC(=O)[C@H]([C@@H](C)O)NC(=O)[C@@H](NC(=O)[C@H](CCCCN)NC(=O)[C@@H](NC(C)=O)C(C)C)CSCCSC[C@@H](C(=O)N[C@@H](CCC(=O)O)C(N)=O)NC1=O [JMRAc(Et)] (HELM PEPTIDE1{[ac].V.K.C.T.G.I.C.E.[am]}|CHEM1{[C(C[*:2])[*:1]]}$PEPTIDE1,CHEM1,4:R3-1:R1|PEPTIDE1,CHEM1,8:R3-1:R2$$$V2.0)	4.06		
CC[C@H](C)[C@@H]1NC(=O)CNC(=O)[C@H]([C@@H](C)O)NC(=O)[C@@H](NC(=O)[C@H](CCCCN)NC(=O)[C@@H](NC(C)=O)C(C)C)CCCNC(=O)CC[C@@H](C(=O)N[C@@H](CCC(=O)O)C(N)=O)NC1=O [YJ13(lactam)] (HELM PEPTIDE1{[ac].V.K.[Orn].T.G.I.E.E.[am]}$PEPTIDE1,PEPTIDE1,4:R3-8:R3$$$V2.0)	4.60		pIC50 (RGS8): 3.79
CC[C@H](C)[C@@H]1NC(=O)CNC(=O)[C@H]([C@@H](C)O)NC(=O)[C@@H](NC(=O)[C@H](CCCCN)NC(=O)[C@@H](NC(C)=O)C(C)C)CCC(=O)NCCCC[C@@H](C(=O)N[C@@H](CCC(=O)O)C(N)=O)NC1=O [YJ14(lactam)] (HELM PEPTIDE1{[ac].V.K.E.T.G.I.K.E.[am]}$PEPTIDE1,PEPTIDE1,4:R3-8:R3$$$V2.0)	3.59		pIC50 (RGS8): 3.08
CC[C@H](C)[C@@H]1NC(=O)CNC(=O)[C@H]([C@@H](C)O)NC(=O)[C@@H](NC(=O)[C@H](CCCCN)NC(=O)[C@@H](NC(C)=O)C(C)C)CSCSC[C@@H](C(=O)N[C@@H](CCC(=O)O)C(N)=O)NC1=O [Yja] (HELM PEPTIDE1{[ac].V.K.C.T.G.I.C.E.[am]}|CHEM1{[C([*:1])[*:2]]}$PEPTIDE1,CHEM1,4:R3-1:R1|PEPTIDE1,CHEM1,8:R3-1:R2$$$V2.0)	4.10		
CC[C@H](C)[C@@H]1NC(=O)CNC(=O)[C@H]([C@@H](C)O)NC(=O)[C@@H](NC(=O)[C@H](CCCCN)NC(=O)[C@@H](NC(C)=O)C(C)C)CSSC[C@@H](C(=O)N[C@@H](CCC(=O)O)C(N)=O)NC1=O [Yjb] (HELM PEPTIDE1{[ac].V.K.C.T.G.I.C.E.[am]}$PEPTIDE1,PEPTIDE1,4:R3-8:R3$$$V2.0)	4.59		
ES2(Et) (VKCTGFCE; cysteine pairing not given here; also: Et modification)		+++	
JO1(Et) (VKCTGICE; cysteine pairing not given here; also: Et modification)		−	
VKTTGIVE			Inhibition of RGS-mediated GTPase acceleration (in words) (RGS4; RGS-stimulated GTPase activity): no activity
YJ4(Et) (VKCTSICE; bridge 3-7; also: Et modification, place not given here, cross-link 3-7: disulfide, thioether or lactam)		+++	
YJ5(Et) (KCTSICE; cysteine pairing not given here; also: Et modification)		−	
YJ6(Et) (VKCTSICE; bridge 3-7; also: Et modification, place not given here, cross-link 3-7: disulfide, thioether or lactam)		−	
YJ15(Et) (VKCTGICE; bridge 3-7; also: Et modification, place not given here, cross-link 3-7: disulfide, thioether or lactam)		−	
